# Test results taken from the supplement of paper PMC10307832.
# Legend:
# Test in all cases: relative viability (nuclei count vs DMSO), 5 days (fraction); higher = more cells survive
# [1] = compound: CN[C@@H]1C[C@H]2O[C@@](C)([C@@H]1OC)n1c3ccccc3c3c4c(c5c6ccccc6n2c5c31)C(=O)NC4 [Staurosporine] + CS(=O)(=O)CCNCc1ccc(-c2ccc3ncnc(Nc4ccc(OCc5cccc(F)c5)c(Cl)c4)c3c2)o1 [Lapatinib] (partner 2 µM)
# Procedure, shortened: (§1)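 Each reported value is a median over duplicate plates. It expresses relative viability: treated-well nuclei count divided by vehicle-well nuclei count. Lung cancer cell lines in 1536-well plates were dosed by pin tool a day after seeding, alone with one drug or with a fixed anchor-drug dose plus five library-drug doses (not always all listed) in √10 steps, and nuclei were counted after 5 days.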
# [2] = compound: CN[C@@H]1C[C@H]2O[C@@](C)([C@@H]1OC)n1c3ccccc3c3c4c(c5c6ccccc6n2c5c31)C(=O)NC4 [Staurosporine] + C[C@@H](Oc1cc(-c2cnn(C3CCNCC3)c2)cnc1N)c1c(Cl)ccc(F)c1Cl [Crizotinib] (partner 1 µM)
# Procedure, shortened: as §1
# [3] = compound: O=c1[nH]cc(F)c(=O)[nH]1 [5-Fluorouracil] + Cc1nc(Nc2ncc(C(=O)Nc3c(C)cccc3Cl)s2)cc(N2CCN(CCO)CC2)n1 [Dasatinib] (partner 0.075 µM)
# Procedure, shortened: as §1
Cell Line,relative viability ([1]; first compound 0.005 µM),relative viability ([1]; first compound 0.01581 µM),relative viability ([1]; first compound 0.05 µM),relative viability ([1]; first compound 0.1581 µM),relative viability ([1]; first compound 0.5 µM),relative viability ([2]; first compound 0.01581 µM),relative viability ([2]; first compound 0.05 µM),relative viability ([2]; first compound 0.1581 µM),relative viability ([2]; first compound 0.5 µM),relative viability ([3]; first compound 0.02 µM),relative viability ([3]; first compound 0.2 µM),relative viability ([3]; first compound 0.6325 µM),relative viability ([3]; first compound 2 µM),relative viability ([2]; first compound 0.005 µM)
NCI-H1792,0.992,0.814,0.503,0.199,0.185,0.822,0.418,0.154,0.16,0.929,0.714,0.277,0.196,
NCI-H2009,0.249,0.152,0.251,0.125,0.0882,0.22,0.174,0.123,0.0888,0.226,0.322,0.248,0.271,0.255
NCI-H2347,0.457,0.348,0.352,0.319,0.407,0.353,0.364,0.415,0.449,0.334,0.328,0.295,0.224,0.559
NCI-H522,,,,,,,,,,0.844,0.852,0.979,0.868,
NCI-H1437,0.698,0.346,0.453,0.152,0.0978,0.702,,0.545,0.449,0.369,0.183,0.189,0.137,0.924
SK-MES-1,0.444,0.31,0.311,0.205,0.185,0.582,0.262,0.184,0.11,0.293,0.257,0.227,0.218,0.718
NCI-H3122,1.01,0.318,0.988,0.665,0.685,0.465,0.59,0.32,0.318,0.917,0.76,0.32,0.205,0.443
NCI-H2085,0.65,0.391,0.463,0.351,0.243,0.516,0.465,0.264,0.237,0.192,0.218,0.21,0.301,0.65
PC-3 [JPC-3],0.46,,0.429,0.287,0.307,,0.707,0.498,0.425,0.979,1.08,0.946,0.709,
NCI-H1299,0.985,0.414,0.326,0.201,0.171,0.385,0.55,0.163,0.142,,,,,0.516
NCI-H1563,0.71,0.541,0.594,0.539,0.472,0.559,0.635,0.587,0.503,0.396,0.517,0.423,0.483,0.696
NCI-H838,0.25,0.164,0.211,0.134,0.103,0.179,0.175,0.168,0.127,0.293,0.291,0.243,0.27,0.259
NCI-H1755,0.556,0.33,0.207,0.142,0.142,0.352,0.179,0.176,0.163,0.416,0.442,0.247,0.184,0.569
NCI-H1650,0.575,0.165,0.336,0.151,0.117,0.389,0.242,0.197,0.106,0.297,0.291,0.202,0.218,0.537
NCI-H650,0.503,0.393,0.286,0.245,0.184,0.333,0.271,0.196,0.151,0.444,0.341,0.287,0.336,0.443
NCI-H1944,0.849,,0.566,0.435,0.304,,0.633,0.666,0.336,0.21,0.225,0.138,0.127,1.13
LK-2,1.31,0.924,,0.346,0.178,0.16,0.129,0.0689,0.0939,0.42,0.29,0.256,0.237,0.18
HCC-15,0.892,,0.595,0.365,0.151,,0.527,0.307,0.267,0.701,0.713,0.417,0.275,0.795
Calu-6,0.87,0.51,0.277,0.136,0.085,0.337,0.163,0.0867,0.0627,,,,,0.809
NCI-H1395,0.833,0.551,0.487,0.356,0.376,,,,,0.39,0.45,0.367,0.442,
EKVX,0.152,0.135,0.162,0.156,0.1,0.429,0.329,0.253,0.146,,,,,0.666
EBC-1,0.187,0.177,0.189,0.122,0.127,0.205,0.163,0.105,0.115,,,,,0.183
NCI-H1703,0.45,0.313,0.245,0.172,0.151,0.253,0.093,0.133,0.0695,,,,,0.483
ChaGo-K-1,,,,,,,0.819,0.256,0.203,0.558,0.595,0.386,0.39,1.14
HCC-44,0.956,,0.208,0.0947,0.0895,0.508,0.197,0.0883,0.0867,,,,,0.531
SW 900,,,,,,,,,,0.507,0.539,0.548,0.577,
NCI-H2342,,,,,,,,,,0.305,0.343,0.301,0.293,
A549,0.823,0.715,0.499,0.0558,0.0481,0.19,0.0867,0.0411,0.0307,,,,,0.369
LCLC-103H,,,,,,0.741,0.564,0.318,0.258,0.493,0.417,0.326,0.251,1.1
